Test results reported in ChEMBL document CHEMBL3046266, “Synthesis of curcumin and ethylcurcumin bioconjugates as potential antitumor agents” (Med Chem Res, 2012).
Calls of active or inactive are those of the source. No cut-off for these calls is given here.

What was measured:
[1] = test system: SK-MEL; assay: Cytotoxicity against Homo sapiens (human) SK-MEL cells by neutral red staining; assay type: functional, cell-based
[2] = test system: Vero; assay: Cytotoxicity against Chlorocebus aethiops (African green monkey) Vero cells up to 25 uM by neutral red staining; assay type: cell-based; conditions: chlorocebus sabaeus
[3] = test system: KB; assay: Cytotoxicity against Homo sapiens (human) KB cells by neutral red staining; assay type: functional, cell-based
[4] = target: DNA topoisomerase 2-alpha (Homo sapiens, UniProt P11388); assay: Inhibition of Homo sapiens (human) topoisomerase 2 assessed as decatenation of KDNA by agarose gel electrophoresis
[5] = test system: SK-OV-3; assay: Cytotoxicity against Homo sapiens (human) SKOV3 cells up to 25 uM by neutral red staining; assay type: functional, cell-based
[6] = target: T1, DNA topoisomerase 1 (Homo sapiens) (UniProt P11387); assay: Inhibition of Homo sapiens (human) topoisomerase 1 assessed as relaxation of supercoiled DNA up to 25 uM by agarose gel electrophoresis
T1 sequence (whole entry): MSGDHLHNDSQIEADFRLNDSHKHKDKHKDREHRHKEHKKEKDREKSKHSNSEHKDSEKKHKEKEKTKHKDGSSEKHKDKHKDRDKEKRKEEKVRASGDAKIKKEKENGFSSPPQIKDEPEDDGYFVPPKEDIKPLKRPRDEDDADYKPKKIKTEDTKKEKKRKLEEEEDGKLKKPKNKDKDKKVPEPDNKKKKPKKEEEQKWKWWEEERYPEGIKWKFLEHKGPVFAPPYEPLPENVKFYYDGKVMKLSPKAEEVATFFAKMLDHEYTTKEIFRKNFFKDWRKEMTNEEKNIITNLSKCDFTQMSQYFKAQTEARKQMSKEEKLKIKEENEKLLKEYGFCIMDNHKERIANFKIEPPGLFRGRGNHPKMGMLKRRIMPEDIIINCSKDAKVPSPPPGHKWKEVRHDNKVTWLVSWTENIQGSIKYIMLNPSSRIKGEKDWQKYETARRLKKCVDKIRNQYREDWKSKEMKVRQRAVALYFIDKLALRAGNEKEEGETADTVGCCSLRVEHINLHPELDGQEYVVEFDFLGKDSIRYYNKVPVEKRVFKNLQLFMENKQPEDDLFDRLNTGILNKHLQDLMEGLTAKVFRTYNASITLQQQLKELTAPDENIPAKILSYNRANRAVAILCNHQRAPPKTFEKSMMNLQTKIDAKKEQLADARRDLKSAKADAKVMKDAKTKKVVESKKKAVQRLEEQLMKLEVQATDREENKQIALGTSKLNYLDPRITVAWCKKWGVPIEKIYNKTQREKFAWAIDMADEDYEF

[7] = target: T1, DNA topoisomerase 1 (Homo sapiens); assay: Inhibition of Homo sapiens (human) topoisomerase 1 assessed as production of nicked DNA up to 25 uM by agarose gel electrophoresis
[8] = test system: LLC-PK1; assay: Cytotoxicity against Sus scrofa (pig) LLC-PK1 cells up to 25 uM by neutral red staining; assay type: cell-based
[9] = test system: BT-549; assay: Cytotoxicity against Homo sapiens (human) BT549 cells by neutral red staining; assay type: functional, cell-based
[10] = test system: KB; assay: Cytotoxicity against Homo sapiens (human) KB cells up to 25 uM by neutral red staining; assay type: functional, cell-based
[11] = test system: SK-MEL; assay: Cytotoxicity against Homo sapiens (human) SK-MEL cells up to 25 uM by neutral red staining; assay type: functional, cell-based
[12] = test system: BT-549; assay: Cytotoxicity against Homo sapiens (human) BT549 cells up to 25 uM by neutral red staining; assay type: functional, cell-based
[13] = test system: LLC-PK1; assay: Cytotoxicity against Sus scrofa (pig) LLC-PK1 cells by neutral red staining; assay type: cell-based

Chain of DNA topoisomerase 2-alpha (P11388 whole entry): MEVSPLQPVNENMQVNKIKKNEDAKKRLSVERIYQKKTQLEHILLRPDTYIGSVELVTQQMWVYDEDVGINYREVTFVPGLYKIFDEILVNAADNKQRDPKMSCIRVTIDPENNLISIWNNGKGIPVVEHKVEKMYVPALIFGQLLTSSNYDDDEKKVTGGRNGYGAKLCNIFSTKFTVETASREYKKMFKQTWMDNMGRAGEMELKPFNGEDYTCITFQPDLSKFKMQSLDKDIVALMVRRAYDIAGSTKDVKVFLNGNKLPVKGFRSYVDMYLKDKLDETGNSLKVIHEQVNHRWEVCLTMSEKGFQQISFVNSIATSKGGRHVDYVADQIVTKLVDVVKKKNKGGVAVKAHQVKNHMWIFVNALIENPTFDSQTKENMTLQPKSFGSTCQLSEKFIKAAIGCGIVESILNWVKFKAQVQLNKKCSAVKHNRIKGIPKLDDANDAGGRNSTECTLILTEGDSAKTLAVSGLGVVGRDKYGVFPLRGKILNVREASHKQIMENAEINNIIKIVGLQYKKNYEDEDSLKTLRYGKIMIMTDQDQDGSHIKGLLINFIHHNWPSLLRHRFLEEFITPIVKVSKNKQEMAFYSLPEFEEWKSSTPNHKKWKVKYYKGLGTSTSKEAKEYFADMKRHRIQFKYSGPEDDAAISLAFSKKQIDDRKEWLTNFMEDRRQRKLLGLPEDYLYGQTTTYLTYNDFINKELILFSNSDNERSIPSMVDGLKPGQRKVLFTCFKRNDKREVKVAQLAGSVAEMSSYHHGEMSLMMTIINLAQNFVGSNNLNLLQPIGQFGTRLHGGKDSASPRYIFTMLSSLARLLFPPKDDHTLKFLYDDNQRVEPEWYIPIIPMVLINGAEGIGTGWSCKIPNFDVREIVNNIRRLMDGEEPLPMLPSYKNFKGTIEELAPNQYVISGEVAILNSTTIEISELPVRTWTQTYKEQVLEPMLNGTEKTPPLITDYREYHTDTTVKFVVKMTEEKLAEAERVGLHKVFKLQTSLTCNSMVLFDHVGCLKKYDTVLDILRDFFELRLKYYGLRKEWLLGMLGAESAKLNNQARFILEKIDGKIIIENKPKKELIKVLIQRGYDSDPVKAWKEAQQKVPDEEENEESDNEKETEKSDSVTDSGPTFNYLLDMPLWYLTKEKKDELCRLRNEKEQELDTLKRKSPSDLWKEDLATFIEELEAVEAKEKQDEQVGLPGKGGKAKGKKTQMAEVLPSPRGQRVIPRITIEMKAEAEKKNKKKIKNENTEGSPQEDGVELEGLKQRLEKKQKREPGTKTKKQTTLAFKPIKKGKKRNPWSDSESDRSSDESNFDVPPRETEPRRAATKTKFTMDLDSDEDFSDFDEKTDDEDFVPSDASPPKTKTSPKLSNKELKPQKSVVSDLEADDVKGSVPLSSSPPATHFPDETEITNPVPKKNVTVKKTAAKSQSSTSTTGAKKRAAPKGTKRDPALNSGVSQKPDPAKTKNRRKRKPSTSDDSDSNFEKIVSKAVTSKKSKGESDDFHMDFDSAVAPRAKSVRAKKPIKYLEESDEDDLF

`COc1ccc2nc(NCCC(=O)Oc3ccc(/C=C/C(=O)CC(=O)/C=C/c4ccc(OC(=O)CCNc5nc6ccc(OC)cc6s5)c(OC)c4)cc3OC)sc2c1` was tested, and the IC50 [1] was 23.8 µM, the Activity [2] was “Non-toxic” and the IC50 [3] was over 25 µM. The IC50 [4] was 19 µM, the Activity [5] was “inactive” and the inhibition [6] was “inactive”. The inhibition [7] was “inactive”, the Activity [8] was “Non-toxic” and the IC50 [9] was 23.8 µM.

For `CCOc1cc(/C=C/C(=O)CC(=O)/C=C/c2ccc(OC(=O)CCl)c(OCC)c2)ccc1OC(=O)CCl` [DI-O-CHLOROACETYLETHYL CURCUMIN], the Activity [10] was “inactive”, the Activity [2] was “Non-toxic” and the Activity [11] was “inactive”. For the same compound, the IC50 [4] was 12 µM, the Activity [5] was “inactive” and the inhibition [6] was “inactive”. The inhibition [7] was “inactive”, the Activity [8] was “Non-toxic” and the Activity [12] was “inactive”.

For `COc1cc(/C=C/C(=O)CC(=O)/C=C/c2ccc(OC(=O)CNC34CC5CC(CC(C5)C3)C4)c(OC)c2)ccc1OC(=O)CNC12CC3CC(CC(C3)C1)C2`, the IC50 [1] was 15 µM, the Activity [2] was “Non-toxic” and the IC50 [3] was over 25 µM. For the same compound, the IC50 [4] was 4 µM, the Activity [5] was “inactive” and the inhibition [6] was “inactive”. The inhibition [7] was “inactive”, the Activity [8] was “Non-toxic” and the IC50 [9] was 19.4 µM.

In the case of `CCCCCCC(=O)Oc1ccc(/C=C/C(=O)CC(=O)/C=C/c2ccc(OC(=O)CCCCCC)c(OC)c2)cc1OC` [DI-O-HEPTANOYLCURCUMIN], the Activity [10] is reported as “inactive”, the Activity [2] is reported as “Non-toxic” and the Activity [11] is reported as “inactive”. The IC50 [4] was 2.9 µM, the Activity [5] was “inactive” and the inhibition [6] was “inactive”. For the same compound, the inhibition [7] was “inactive”, the Activity [8] was “Non-toxic” and the Activity [12] was “inactive”.

With `CCOc1cc(/C=C/C(=O)CC(=O)/C=C/c2ccc(OC(=O)CCNCCN(CC)CC)c(OCC)c2)ccc1OC(=O)CCNCCN(CC)CC` the Activity [10] was “inactive”, the Activity [2] was “Non-toxic” and the Activity [11] was “inactive”. For the same compound, the IC50 [4] was 7.1 µM, the Activity [5] was “inactive” and the inhibition [6] was “inactive”. For the same compound, the inhibition [7] was “inactive”, the Activity [8] was “Non-toxic” and the Activity [12] was “inactive”.

For `CCOc1cc(/C=C/C(=O)CC(=O)/C=C/c2ccc(OC(=O)CCCl)c(OCC)c2)ccc1OC(=O)CCCl` [DI-O-CHLOROPROPIONYLETHYL CURCUMIN], the Activity [10] was “inactive”, the Activity [2] was “Non-toxic” and the Activity [11] was “inactive”. For the same compound, the IC50 [4] was 20 µM, the Activity [5] was “inactive” and the inhibition [6] was “inactive”. The inhibition [7] was “inactive”, the Activity [8] was “Non-toxic” and the Activity [12] was “inactive”.

For `COc1cc(/C=C/C(=O)CC(=O)/C=C/c2ccc(OC(=O)c3cccs3)c(OC)c2)ccc1OC(=O)c1cccs1` [DI-O-(2-THIENOYL)CURCUMIN], the Activity [10] was “inactive”, the Activity [2] was “Non-toxic” and the Activity [11] was “inactive”. The IC50 [4] was 8 µM, the Activity [5] was “inactive” and the inhibition [6] was “inactive”. The inhibition [7] was “inactive”, the Activity [8] was “Non-toxic” and the Activity [12] was “inactive”.

For `COc1ccc2nc(NCC(=O)Oc3ccc(/C=C/C(=O)CC(=O)/C=C/c4ccc(OC(=O)CNc5nc6ccc(OC)cc6s5)c(OC)c4)cc3OC)sc2c1`, the IC50 [1] was 15 µM, the Activity [2] was “Non-toxic” and the IC50 [3] was 23 µM. For the same compound, the IC50 [4] was 15 µM, the IC50 [13] was 22.5 µM and the Activity [5] was “inactive”. The inhibition [6] was “inactive”, the inhibition [7] was “inactive” and the IC50 [9] was 18.1 µM.

`COc1cc(/C=C/C(=O)CC(=O)/C=C/c2ccc(O)c(OC)c2)ccc1O` [CURCUMIN] was tested, and the IC50 [1] was 13.8 µM, the Activity [2] was “Non-toxic” and the IC50 [3] was over 25 µM. The IC50 [4] was 15 µM, the Activity [5] was “inactive” and the inhibition [6] was “inactive”. For the same compound, the inhibition [7] was “inactive”, the Activity [8] was “Non-toxic” and the IC50 [9] was 10.5 µM.
